From US11191760B2, “Compositions and methods for treating Helicobacter pylori infection” (priority 2016, dated 2021)

Columns and labels:
Format in all cases: cell-based
[1] = system: AGS cells; assay: VacA-disrupted autophagy in AGS cells (LC3-II immunoblot, LC3 puncta); details: for VacA-disrupted autophagy (LC3-II levels): FIG. 13
Description: AGS cells incubated with VacA+ or VacA− CCMS for 3 to 4 hrs were then treated with 20 μM ML-SA1 or DMSO (vehicle) for an additional 3 hrs. Cell lysates were prepared and probed for the autophagy marker LC3-II and actin (loading control) (4A, left). Densitometry analysis (LC3-II/actin ratio) of 6 experiments is included on the right. […] Cells treated as indicated above were fixed and stained for LC3-11 (marker of autophagosomes) and cell nuclei (using DAPI). […] One representative image of 7 experiments is shown.
To validate the results obtained with ML-SA1 and confirm that VacA impairs TRPML1 activity, a new recently described TRPML1 agonist, MK6-83, was also evaluated in its ability to restore VacA-disrupted autophagy. To this end, AGS cells incubated with VacA+ or VacA− CCMS for 4 hours were treated with 20 μM ML-SA1, 10 μM MK6-83 or DMSO (vehicle) for additional 3 hour period. Cell lysates were prepared and assessed for LC3-II and actin as loading control. […] This example provides evidence that various TRPML1 agonists of different structures work in the same way by targeting TRPML1 to restore VacA-disrupted autophagy.

[2] = system: AGS cells; assay: VacA-induced missorting of cathepsin D in AGS cells (Lamp1/cathepsin D staining); details: 20 μM for 4 hrs after overnight VacA+ CCMS
Description: VacA− DMSO treated (control) cells display lysosomes filled with cathepsin D (same puncta obtained by Lamp1 and cathepsin D staining in the top 2 panels) whereas the big vacuoles generated by VacA+ incubation lack cathepsin D (middle panels). […] A higher magnification of a merged Lamp1/cathepsin D image is included on the right. One representative image of 6 experiments is shown.
(§1) ML-SA1 administration to VacA^+ treated AGS cells recovered the delivery of cathepsin D to intracellular vacuoles (FIG. 5) and increased cathepsin D cellular levels as detected by immunoblotting (FIG. 6). Importantly, ML-SA1-treated cells also regained the ability to degrade the chromogenic substrate, DQ-BSA (FIG. 7). Altogether, these findings indicate that activation of the TRPML1 channel reverts formation of the VacA-induced non-degradative vacuole.

[3] = system: AGS cells; assay: Lysosomal degradative function in VacA+ CCMS treated AGS cells (red DQ-BSA); details: 20 μM for 3 hrs after overnight VacA+ CCMS, then red DQ-BSA 4 hrs
Description: AGS cells were incubated overnight with VacA− or VacA+ CCMS and treated with 20 μM ML-SA1 or DMSO (vehicle) for an additional 3 hrs period prior to being loaded with red DQ-BSA for an additional 4 hrs. Cells were then fixed and stained with DAPI. Red DQ-BSA is a chromogenic substrate taken up by the cells by endocytosis. The dye generates a fluorescence signal once hydrolyzed in lysosomes. VacA− treated control cells efficiently degrade the substrate resulting in the detection of the fluorescence signal (lysosomal-like white puncta in 7A) whereas in VacA+ treated cells minimal to none fluorescence is detected (7B). […] The experiment was repeated 4 times with similar results.
as §1

[4] = system: wild-type (VacA+) H. pylori; assay: Intracellular bacteria survival in infected AGS cells (gentamicin, CFU)
[5] = system: AGS cells; assay: Cathepsin D cellular levels in VacA+ CCMS treated AGS cells (Western blotting); details: 20 μM for 4 hrs after overnight VacA+ CCMS
Description: AGS cells were incubated overnight with VacA− or VacA+ CCMS and treated with 20 μM ML-SA1 or DMSO (vehicle) for an additional 4 hrs period prior to lysate preparation. Cathepsin D and actin (loading control) levels were analyzed by Western blotting. […] One representative blot of 5 is shown (top panel). Densitometry analysis of cathepsin D levels (cathepsin D/actin ratio), normalized to the VacA− treated control is shown (bottom panel).
as §1

[6] = system: human gastric organoids; assay: VacA-induced large vacuoles and disrupted autophagy in human gastric organoids; details: 16 h VacA+ culture supernatant
Description: (11A) 3-dimensional human gastric organoids were treated 16 h with VacA− or VacA+ culture supernatant, then 5 h with vehicle (DMSO) or ML-SA1. One representative Western blot is shown and the corresponding quantification of the rescue in LC3-II by treatment with ML-SA1 from organoids derived from 5 different patients. (B) Representative confocal images taken from human gastric organoid monolayers treated for 16 h with VacA− or VacA+ culture supernatant, then 3 h with vehicle (DMSO) or ML-SA1. VacA-induced large vacuoles were visualized by Lamp1, autophagy by LC3 and nuclei by DAPI. Note large Lamp1 positive rings and LC3 puncta (arrows) in VacA+ DMSO that were rescued in VacA+ ML-SA1.
Organoids are 3-dimensional primary cell cultures that recapitulate the normal stomach physiology. These cultures are derived from stem cells located in the gastric gland that differentiate into complex structures containing the different cell types found in the stomach epithelium. To ensure findings from the cancerous gastric cell line (AGS) held true in a physiological model, organoids were derived from multiple different patients and treated with VacA.

[7] = system: AGS cells; assay: Vacuolation and cathepsin D missorting in AGS cells infected with wild-type (VacA+) H. pylori; details: treated for 4 hrs
Description: A merged image is shown on the left, and the individual stainings corresponding to a higher magnification of the selected areas are included on the right. In the AGS cells infected with VacA− H. pylori mutant, the cathepsin D-filled lysosomes efficiently killed the intracellular bacteria (visualized by DAPI).
To this end, AGS cells infected with wild-type (VacA^+) or VacA^− mutant H. pylori were incubated with the cell-impermeant antibiotic gentamicin to kill extracellular bacteria. Intracellular bacteria were then retrieved and quantified. […] The big vacuoles, depleted of cathepsin D and filled with bacteria observed in the VacA^+ H. pylori infected cells (FIG. 9, inset), were reduced in size and filled with the hydrolytic enzyme after ML-SA1 treatment (FIG. 9, inset). Thus, the reduction in intracellular survival was a consequence of the destruction of the […] H. pylori protective niche (FIG. 8,9).

[8] = system: AGS cells; assay: VacA-induced vacuolation in AGS cells (Lamp1 staining); details: 20 μM for 3 hrs after 3 to 4 hrs VacA+ CCMS
Description: AGS cells were incubated with CCMS from wild-type (VacA+) or mutant (VacA−) 60190 H. pylori for 3 to 4 hrs to induce vacuole formation. Cells were then treated with 20 μM of the TRPML1 agonist ML-SA1 or DMSO (vehicle) for an additional 3 hrs period prior to fixation and staining for Lamp1 and cell nuclei. […] Lamp1 staining in these TRPML1 treated cells was indistinguishable from VacA− CCMS control AGS cells. The experiment was repeated 8 times with similar results. One representative experiment is shown.
ML-SA1-treated VacA^+ AGS cells were indistinguishable from VacA^− control cells, displaying Lamp1 staining that resembled normal lysosome size and distribution.

Compound	VacA-disrupted autophagy (LC3-II levels) ([1]; 10 μM for 3 hour after 4 hours VacA+ CCMS, AGS cells)	cathepsin D sorting to lysosomes [2]	lysosomal degradative function (degradation of DQ-BSA) [3]	intracellular survival of wild-type (VacA+) H. pylori (CFU) ([4]; 8 hrs infection, 20 μM for the last 3 hrs)	intracellular survival of wild-type (VacA+) H. pylori (CFU) ([4]; 24 hrs infection, 20 μM for the last 4 hrs)	VacA-disrupted autophagy (LC3-II levels) ([1]; 20 μM for 3 hour after 4 hours VacA+ CCMS, AGS cells)	autophagy marker LC3-II (LC3-II/actin ratio) ([1]; 20 μM for 3 hrs after 3 to 4 hrs VacA+ CCMS, AGS cell lysates, FIG. 4A)	accumulation of dysfunctional autophagosomes (LC3 puncta) ([1]; 20 μM for 3 hrs after VacA+ CCMS, AGS cells, staining, FIG. 4B)	cathepsin D cellular levels (cathepsin D/actin ratio) [5]	VacA-induced large intracellular vacuoles (Lamp1) ([6]; then 3 h compound, human gastric organoid monolayers)	disrupted autophagy (LC3) ([6]; then 5 h (3-dimensional organoids, LC3-II blot) or 3 h (monolayers) compound)	size of the vacuoles in VacA+ H. pylori infected cells ([7]; Lamp1 staining)	cathepsin D in the vacuoles of VacA+ H. pylori infected cells ([7]; cathepsin D staining)	VacA-induced vacuolation (Lamp1 staining) [8]
Cc1ccc(S(=O)(=O)Nc2ccccc2N2CCCCC2)s1 [MK6-83]	restored the VacA-disrupted autophagy	–	–	–	–	–	–	–	–	–	–	–	–	–
CC1CC(C)(C)N(C(=O)CN2C(=O)c3ccccc3C2=O)c2ccccc21 (centres unmarked) [ML-SA1]	–	restores cathepsin D sorting to lysosomes	restores the degradative capacity	reverted the enhanced intracellular survival	reverted the enhanced intracellular survival	restored the VacA-disrupted autophagy	autophagy was restored	reversed the accumulation of dysfunctional autophagosomes	restored cathepsin D levels	large vacuoles were reverted	autophagy was restored	causes a reduction in the size of the vacuoles	now contain the lysosomal hydrolase cathepsin D	reversed the vacuolation
